This passage reports target mRNA inhibition results from the OligoGym collection.

Values joined by “and” are separate entries in the source; they are usually repeats but may differ in a detail not shown here. Equal values may be shown once. After the bases stand the sugars from the 5' end (letter, count) and the backbone: PS all phosphorothioate, else s phosphorothioate and o phosphodiester by linkage. Methylation of C is not given here. e = 2'-O-(2-methoxyethyl) (MOE); k = constrained ethyl (cEt); d = 2'-deoxy (DNA)

The first data set concerns the target IRF4. To be noted: ASO, MM.1R, 0.0625 µM.
With GGAAGTTTACACTGGA (sugars k3 d10 k3, PS), the target mRNA inhibition is 41% and 42%.

Staying with this data set, now noted: ASO, MM.1R, 0.074 µM.
For the sequence “AGTTGTAAATGAGTCG (sugars kkkdddddddddkeke, PS)”, the target mRNA inhibition is 29%.
For “GCAGTGATGTCAGGTT (sugars kkdddddddddekeke, PS)”, the target mRNA inhibition turned out to be 22%.

Staying with this data set, now noted: ASO, MM.1R, 0.222 µM.
Regarding “AGTTGTAAATGAGTCG (sugars kkkdddddddddkeke, PS)”, the target mRNA inhibition was 58%.
Turning to “GCAGTGATGTCAGGTT (sugars kkdddddddddekeke, PS)”, the target mRNA inhibition worked out at 49%.

Staying with this data set, now noted: ASO, MM.1R, 0.25 µM.
Consider GGAAGTTTACACTGGA (sugars k3 d10 k3, PS), for which the target mRNA inhibition is 66% and 68%.

The data set is the same for the next values; noted with them: ASO, MM.1R, 0.666 µM.
On to GGAAGTTTACACTGGA (sugars k3 d10 k3, PS), for which the target mRNA inhibition was 79% and 94%.
In the case of “AGTTGTAAATGAGTCG (sugars kkkdddddddddkeke, PS)”, the target mRNA inhibition turned out to be 76%.
On to “GCAGTGATGTCAGGTT (sugars kkdddddddddekeke, PS)”, for which the target mRNA inhibition stood at 73%.

Staying with this data set, now noted: ASO, MM.1R, 1 µM.
In the case of “CAAGCAGTGATGTCAG (sugars kddddddddddkekek, PS)”, the target mRNA inhibition is 35% and 43%.
As to “ACCTCAGTTTGTGAAG (sugars kkdddddddddkekek, PS)”, the target mRNA inhibition stood at 13%.
Regarding “TGTAGTATGAGAAACG (sugars kkdddddddddkekek, PS)”, the target mRNA inhibition is 12%.
GCACTCTTACTCCGCT (sugars k3 d10 k3, PS): the target mRNA inhibition came out at 2%.
Take AATCTTCTGGATTGCT (sugars k3 d10 k3, PS): the target mRNA inhibition came to 14%.
Turning to “TTATGTTAGCCAATTC (sugars kdddddddddkekeke, PS)”, the target mRNA inhibition was 9% and 2%.
On the same count and under the same terms, with CATAAAGGACCCCGCC (sugars k3 d10 k3, PS) the figure was -5%.
As for “GATGTGATAGCTGAGC (sugars kkddddddddddkeke, PS)”, the target mRNA inhibition was determined as 64%.
In the case of GAATGGCGGATAGATC (sugars k3 d10 k3, PS), the target mRNA inhibition was -3%.
Same read-out and setting: with “ACTGCTTGAGGTTTTC (sugars kkddddddddddkeke, PS)” the figure was 21%; with “AAGTTCATGTAAAGTC (sugars k2 d9 e3 k2, PS)”, 21% and 3%.
The same measure, in the same setting: as for “ATGTTAGCCAATTCCT (sugars kkdddddddddekeke, PS)”, the figure is 27% and 30%; as for “AGTTGTAAATGAGTCG (sugars kkkdddddddddkeke, PS)”, 77%; as for TAAAACTGCGCTCTCT (sugars k3 d10 k3, PS), -14%.
For TTTATCATCCGAAAAG (sugars k3 d10 k3, PS), the target mRNA inhibition is 7%.
With “AGTGTCTAAAGTCCCA (sugars kkddddddddddkeke, PS)”, the target mRNA inhibition was 32% and 39%.
Same read-out and setting: with “TTGGTTGGCTGGTCTT (sugars kkddddddddddkeke, PS)” the figure was 27%; with “GCAGTGATGTCAGGTT (sugars kkdddddddddekeke, PS)”, 80%; with “GATTATATACTGGTTG (sugars kddddddddddkekek, PS)”, 48%.
With TTCTTTATAGTAGGTA (sugars k3 d10 k3, PS), the target mRNA inhibition stood at 15%.
Regarding “TCTATAGTGTTCCAGG (sugars kkkddddddddkekek, PS)”, the target mRNA inhibition amounted to 13%.
As to “TTCATGTAAAGTCTGC (sugars kkdddddddddekeke, PS)”, the target mRNA inhibition is 32% and 39%.
“AGGCACATCAATGTTT (sugars k2 d9 e3 k2, PS)”: the target mRNA inhibition is 36% and 43%.
With “AGTTCATGTAAAGTCT (sugars kkddddddddddkeke, PS)”, the target mRNA inhibition was 45% and 49%.
CCACATGTCCCGTGGG (sugars k3 d10 k3, PS): the target mRNA inhibition is -28%.
AAAGAAGCAAGTCGGT (sugars k3 d10 k3, PS): the target mRNA inhibition is -2%.
Regarding “CACATCAATGTTTTAG (sugars kkdddddddddkdkdk, PS)”, the target mRNA inhibition is 28% and 37%.
The same measure, in the same setting: with “TGTTACCGATGCTTCA (sugars kkddddddddddkeke, PS)” the figure was 25% and 42%.
Take “TGATAGCTGAGCTGAT (sugars kkdddddddddekeke, PS)”: the target mRNA inhibition stood at 15%.
Take AAAAAGGTGCAAGCCT (sugars k3 d10 k3, PS): the target mRNA inhibition is 6%.

The data set is the same for the next values; noted with them: ASO, MM.1R, 2 µM.
Consider GGAAGTTTACACTGGA (sugars k3 d10 k3, PS), for which the target mRNA inhibition was 95% and 98%.
In the case of “AGTTGTAAATGAGTCG (sugars kkkdddddddddkeke, PS)”, the target mRNA inhibition worked out at 90%.
For “GCAGTGATGTCAGGTT (sugars kkdddddddddekeke, PS)”, the target mRNA inhibition is 92%.

The same data set, now with this note: ASO, MM.1R, 4 µM.
GGAAGTTTACACTGGA (sugars k3 d10 k3, PS): the target mRNA inhibition worked out at 91%.

The data set is the same for the next values; noted with them: ASO, SK-MEL-28, 4 µM.
As to TCAAATCGACTGCCAC (sugars k3 d10 k3, PS), the target mRNA inhibition was 54%.
Consider AGCTTAGTTATCTGGG (sugars k3 d10 k3, PS), for which the target mRNA inhibition is 54% and 59%.
The same measure, in the same setting: with CTTGCCAGTGGTGGCC (sugars k4 d8 k4, PS) the figure was -9%; with ATCCACAATCAGCAAG (sugars k3 d10 k3, PS), 51%.
As to CCCAGTCTACTGCTGT (sugars k3 d10 k3, PS), the target mRNA inhibition turned out to be 66%.
Turning to GAGAAAACTCCTGAGT (sugars k3 d10 k3, PS), the target mRNA inhibition was found to be 5%.
On to TGCAAGATGACTCCAT (sugars k3 d10 k3, PS), for which the target mRNA inhibition came to 57%.
In the case of GTGGGAGTCGGAGCTC (sugars k3 d10 k3, PS), the target mRNA inhibition is 17%.
As to ATGCTTGGCTCTGTGG (sugars k3 d10 k3, PS), the target mRNA inhibition was determined as 76%.
Take GTGTTTGGTGGGAATC (sugars k3 d10 k3, PS): the target mRNA inhibition came to 46%.
On to TTTCAAATCGACTGCC (sugars k3 d10 k3, PS), for which the target mRNA inhibition is 31%.
The same measure, in the same setting: with TCCCATCCAAGAGTAG (sugars k3 d10 k3, PS) the figure was 33%; with GGAAGTTTACACTGGA (sugars k3 d10 k3, PS), 85%; with CAAGAACTGCTGTGTG (sugars k3 d10 k3, PS), -5%.
The same measure, in the same setting: as for AGAAGTACGAGCACAT (sugars k3 d10 k3, PS), the figure is 44%; as for ACGAGAACGCACGGAC (sugars k3 d10 k3, PS), 40%.
For AGTAGCTGGGCCCTCG (sugars k3 d10 k3, PS), the target mRNA inhibition worked out at 62%.
Regarding CCTACATACATTAATA (sugars k3 d10 k3, PS), the target mRNA inhibition was -7%.
Regarding TACCATGCATAGTGAT (sugars k3 d10 k3, PS), the target mRNA inhibition turned out to be 44%.
Take TCCCAACCCGCTTCTC (sugars k3 d10 k3, PS): the target mRNA inhibition is 14%.
In the case of CCCCAAAGAGAGTGGG (sugars k3 d10 k3, PS), the target mRNA inhibition was -11%.
For the sequence AAAAAAGGTGCAAGCC (sugars k3 d10 k3, PS), the target mRNA inhibition came out at 7%.
Consider TCACAAAGCGGGTTCA (sugars k3 d10 k3, PS), for which the target mRNA inhibition was found to be 23%.
Consider ACAGAGGACTTCGGGA (sugars k3 d10 k3, PS), for which the target mRNA inhibition is -36%.
As for CTCTTACTCCGCTGAG (sugars k3 d10 k3, PS), the target mRNA inhibition is -5%.
As for AATAAGCAGAAACAGC (sugars k3 d10 k3, PS), the target mRNA inhibition is -1%.
As to GCAGAAGCTGGTTGGC (sugars k3 d10 k3, PS), the target mRNA inhibition is 58%.
As to GGCCTGGAGGTGACGC (sugars k3 d10 k3, PS), the target mRNA inhibition amounted to 41%.
With ACTGTTTTAAGAGGCG (sugars k3 d10 k3, PS), the target mRNA inhibition is 68% and 70%.
Consider GAACCTGCTGGGCTGG (sugars k4 d8 k4, PS), for which the target mRNA inhibition stood at 13%.
Turning to TTATGCATGTTCCTCA (sugars k3 d10 k3, PS), the target mRNA inhibition turned out to be 57%.
In the case of GCACTGGCATTGAGAC (sugars k3 d10 k3, PS), the target mRNA inhibition was 73%.
Same read-out and setting: as for GCAGCTCCTACATACA (sugars k3 d10 k3, PS), the figure is 53%; as for CGGAGCTTCCCGTTGC (sugars k3 d10 k3, PS), 35%; as for CCATTAGAAAAGCAGG (sugars k3 d10 k3, PS), 80% and 78%.
On to GACAAGTGGCGCAGAC (sugars k3 d10 k3, PS), for which the target mRNA inhibition worked out at 11%.
For GAGGACTTCGGGAGAT (sugars k3 d10 k3, PS), the target mRNA inhibition amounted to 23%.
For TCATACCCTGGATCAC (sugars k3 d10 k3, PS), the target mRNA inhibition was found to be 43%.
Consider AAACAGTGCCCAAGCC (sugars k3 d10 k3, PS), for which the target mRNA inhibition turned out to be 25%.
Regarding CAAAAGTACCACAGGG (sugars k3 d10 k3, PS), the target mRNA inhibition was 40%.
Regarding AAGGTCTGAGAGCCTT (sugars k3 d10 k3, PS), the target mRNA inhibition turned out to be 17%.
For GCCTTGGACGGCCCCG (sugars k3 d10 k3, PS), the target mRNA inhibition came to 23%.
Consider AGGTAGTGGCCCCAGC (sugars k3 d10 k3, PS), for which the target mRNA inhibition turned out to be 60%.
In the case of AGCATCTAAGGCAAGC (sugars k3 d10 k3, PS), the target mRNA inhibition is 57%.
Take GCATTTTCCAGAAAAT (sugars k4 d8 k4, PS): the target mRNA inhibition is 37%.
On to GACAAATCTTCTGCCT (sugars k3 d10 k3, PS), for which the target mRNA inhibition amounted to 26%.
Same read-out and setting: with GACTCCGGGAGCCTGG (sugars k3 d10 k3, PS) the figure was 65%.
On the same count and under the same terms, with ATAGGAAGTTTACTAA (sugars k3 d10 k3, PS) the figure was 13%; with TAGCAGGGCACGCTCT (sugars k3 d10 k3, PS), 31%; with AAGATACAAAACGGAC (sugars k3 d10 k3, PS), 39%.
TCCCACGCGGGAGGCT (sugars k3 d10 k3, PS): the target mRNA inhibition amounted to 1%.
Turning to AGAAACGAGTTGACAC (sugars k3 d10 k3, PS), the target mRNA inhibition was determined as 15%.
As for AGGTAAGGGCCCCGTG (sugars k3 d10 k3, PS), the target mRNA inhibition came out at 47%.
For CTGGAGTGAACCCTTC (sugars k3 d10 k3, PS), the target mRNA inhibition was 56%.
Regarding GAAATACGACAACTTT (sugars k3 d10 k3, PS), the target mRNA inhibition was 22%.
Regarding ACCCAGAAGTACGAGC (sugars k3 d10 k3, PS), the target mRNA inhibition was 21%.
With CTGGAGAGCAATGAAC (sugars k3 d10 k3, PS), the target mRNA inhibition amounted to 67%.
Take GCTGATGGAGAAACGA (sugars k3 d10 k3, PS): the target mRNA inhibition is 7%.
As for TGCCGAGATATAAATA (sugars k3 d10 k3, PS), the target mRNA inhibition was determined as 23%.
